In article PMC3781034, “A Small-Animal Pharmacokinetic/Pharmacodynamic PET Study of Central Serotonin 1A Receptor Occupancy by a Potential Therapeutic Agent for Overactive Bladder” (PLoS ONE, 2013):
Like-named read-outs stand apart in the source and are kept apart here.

Experiments:
[1] = Protein binding of E2110 in rat plasma (equilibrium dialysis); assay type: in vitro ADME
Method: The in vitro unbound fraction of […] in male SD rat plasma was quantified by equilibrium dialysis. One mL of the […] spiked sample (100, 1000 and 10000 ng/mL) and phosphate buffered saline (PBS) were applied to one and the other chambers of a dialysis cell, respectively. The cartridge was incubated in a water bath for 24 hr at 37°C. After incubation, aliquots were sampled from both chambers and submitted to determination of the concentration of […] in each matrix by liquid chromatography-tandem mass spectrometry. Unbound fractions for each compound were calculated as the ratio of […] concentration from the PBS side to that from the plasma side of the dialysis apparatus. Concentrations of […] were determined in plasma or PBS by liquid chromatography - tandem mass spectrometry. Samples (5 μL) were injected into an L-column ODS (35 × 2.1 mm; 5 μM, Chemical Evaluation and Research Institute, Tokyo, Japan) with a flow rate of 0.6 mL/min. We used 0.1% formic acid in water and acetonitrile as mobile phase A and B, respectively. […] […] was monitored using mass transitions of 490.4/459.2. Tamsulosin was used as an internal standard, and was monitored using a mass transition of 409.3/200.0. The lower limit of quantification of […] in plasma was 0.5 ng/mL.

PK study in rats (oral) = assay type: in vivo; details: Sprague-Dawley, rat, plasma, 1 mg/kg oral; for AUC(0-t): read-out: AUC0-8hr
Method: E2110 was administered orally to male and female SD rats, (4 animals/sex) at a dose of 1 mg/kg. Blood samples were collected from the jugular veins by heparinized syringes at 0.25, 0.5, 1, 2, 4, 6, and 8 hours after dosing.
Concentrations of E2110 were determined in plasma or PBS by liquid chromatography - tandem mass spectrometry. Samples (5 µL) were injected into an L-column ODS (35 × 2.1 mm; 5 µM, Chemical Evaluation and Research Institute, Tokyo, Japan) with a flow rate of 0.6 mL/min. We used 0.1% formic acid in water and acetonitrile as mobile phase A and B, respectively. The gradient elution started with a gradient from 0% to 100% mobile phase B for 2 min, then 1 min of 100% B, followed by a gradient of 100% to 0% for 0.01 min at the end, at a flow rate of 0.6 ml/min. The mass spectrometer (Quattro Ultima-Pt; Micromass, Waters Ltd., Manchester, UK) was operated in a positive ion multiple reaction monitoring mode. E2110 was monitored using mass transitions of 490.4/459.2. Tamsulosin was used as an internal standard, and was monitored using a mass transition of 409.3/200.0. The lower limit of quantification of E2110 in plasma was 0.5 ng/mL.

micturition interval [2] = assay: 5-HT1A receptor agonist (8-OH-DPAT)-induced model of OAB, cystometry; assay type: in vivo, female SD rats
Method: Catheter implantations and cystometric investigations were performed based on the reported method [14]. Briefly, on the day before the cystometric experiment, female SD rats were initially anesthetized with pentobarbital (50 mg/kg ip). Catheters were inserted into the femoral vein, the dome of the stomach and the dome of the bladder. In the cystometric study, the bladder catheter was connected to an infusion pump and a pressure transducer (DX-312; Nihon Kohden Co., Tokyo, Japan) by three-way stopcock. Saline was infused into the bladder and femoral vein. After bladder pressure was stabilized, 8-OH-DPAT (0.06 mg/kg/h) was infused into the femoral vein instead of saline. Bladder pressure was monitored with a pressure transducer and a pressure amplifier (AP-601G; Nihon Kohden), and recorded on a pen recorder (WT-645G; Nihon Kohden). The following three micturition intervals (i.e., intervals between consecutive peaks of bladder pressure induced at the time of bladder content evacuation) were obtained: (1) basal micturition interval (intervals before 8-OH-DPAT administration), (2) pre-administration micturition interval, (intervals immediately before administration of E2110 or vehicle), and (3) post-administration micturition interval (intervals observed between 1 and 2 hr after administration of E2110 or vehicle). […] E2110 (0.03, 0.1 or 0.3 mg/kg) or vehicle was administered to four groups of eight conscious rats orally.

micturition interval [3] = assay: Superior colliculus lesion (SCL) model, cystometry; assay type: in vivo, female SD rats
Method: For lesioning of the brain to stimulate the micturition reflex, anesthesia was induced in female SD rats with 4% halothane and an N2O/O2 (2:1) gas mixture, it was maintained with 2% halothane, and each animal was mounted onto a stereotaxic apparatus. […] Catheter implantations and cystometric investigations were performed with the same methodologies as in the 5-HT1A receptor agonist-induced model. E2110 (0.1, 0.3 or 1 mg/kg) or vehicle was administered to four groups of eight conscious rats orally. The three micturition intervals were obtained and drug-induced changes in the micturition intervals were evaluated. In this assay, the post-administration micturition interval was defined as the average of the micturition intervals over an observation period between 0.5 and 1 hour after administration.
Data are expressed as mean ± standard error of mean (S.E.M). In the pharmacological study, the statistical significance of differences between the vehicle- and E2110-treated groups was tested using one-way analysis of variance (ANOVA) followed by Dunnett’s multiple comparison test. A probability (p) value of <0.05 (two-sided) was considered statistically significant. All statistical analyses were performed using the SAS software package version 8.1 or 8.2 (SAS Institute Japan Ltd., Tokyo, Japan).

P-glycoprotein = assay: Brain-to-plasma ratio in Mdr1a/1b-knockout vs wild-type mice; assay type: in vivo; details: rodents, BBB drug transporter; data not shown
CYP3A4 = target: T1, CYP3A4 (Homo sapiens, UniProt P08684); assay: Metabolism in human liver microsomes; assay type: in vitro ADME; details: unpublished results
T1 construct: from tissue; host or cells: human liver microsomes

5-HT1A receptors [4] = assay: [35S]guanosine-5'-O-(3-thio)-triphosphate binding studies; assay type: biochemical; details: stated in introduction, no data shown
5-HT1A receptors [5] = assay: Effect compartment model simulation of 5-HT1A RO in female rats; design: species or system female SD rats; details: for simulated 5-HT1A RO: DRN
From the text: The effect compartment model is illustrated in Figure 2. The mean plasma concentration profile of E2110 in each of four rats was fitted by two-compartment model with first order absorption and elimination. A sigmoid Emax model (Equation 4) based on the concentration in the effect compartment was fitted to the PD (RO) data. PK and PD models were linked using an effect compartment model described by the following equation: […]
where Cp and Ce are concentrations of E2110 in the plasma and effect compartments, respectively, and ke0 represents the equilibration rate constant for the effect compartment. PK and PD parameters were estimated by using […] (Version 2.01, MicroMath Research, UT, USA).

T1 sequence (P08684 whole entry): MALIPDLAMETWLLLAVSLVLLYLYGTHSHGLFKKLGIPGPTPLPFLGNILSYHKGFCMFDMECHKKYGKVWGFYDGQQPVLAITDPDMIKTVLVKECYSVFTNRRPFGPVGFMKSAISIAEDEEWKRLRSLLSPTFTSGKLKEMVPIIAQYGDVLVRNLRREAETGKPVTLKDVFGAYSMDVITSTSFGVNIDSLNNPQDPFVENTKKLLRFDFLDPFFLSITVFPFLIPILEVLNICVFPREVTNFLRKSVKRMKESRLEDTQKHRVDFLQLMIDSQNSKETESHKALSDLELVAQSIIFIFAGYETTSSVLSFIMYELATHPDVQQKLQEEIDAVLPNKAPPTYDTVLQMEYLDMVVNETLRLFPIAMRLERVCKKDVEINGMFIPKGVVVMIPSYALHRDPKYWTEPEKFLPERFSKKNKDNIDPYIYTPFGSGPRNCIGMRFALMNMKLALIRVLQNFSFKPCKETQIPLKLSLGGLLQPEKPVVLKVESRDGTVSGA

## CNC(=O)c1ccc2ccn(C3CCN(CCc4c(OC)ccc5c4OC(C)(C)CC5=O)CC3)c2c1.O=C(O)/C=C/C(=O)O [E2110, 1-{1-[2-(7-Methoxy-2,2-dimethyl-4-oxochroman-8-yl)ethyl]piperidine-4-yl}-N-methyl-1H-indole-6-carboxamide fumarate]
[1]; at 0.1, 1 µM
  concentration dependence of binding to plasma proteins: not dependent on its concentration
[1]; male SD rat plasma, equilibrium dialysis 24 hr 37°C
  average percentage of protein-unbound E2110 in plasma: 6%
PK study in rats (oral); Female SD
  Cmax: 126 ng/mL
  Tmax: 60 min
  half-life: 156 min
  AUC(0-t): 488 ng·h/mL
PK study in rats (oral); Male SD
  Cmax: 48.1 ng/mL
  Tmax: 30 min
  half-life: 90 min
  AUC(0-t): 71.8 ng·h/mL
Micturition interval [2]; 8-OH-DPAT model, oral
  minimum dose exerting overt therapeutic effects on the micturition reflex: 0.1 mg/kg
Micturition interval [2]; oral 0.1-0.3 mg/kg, 8-OH-DPAT-infused female SD rats, 1-2 hr after administration
  effect on micturition interval: significantly (p < 0.05) prolonged the micturition intervals
Micturition interval [3]; SCL model, oral
  minimum dose exerting overt therapeutic effects on the micturition reflex: 0.3 mg/kg
Micturition interval [3]; oral 0.3-1 mg/kg, SCL female SD rats, 0.5-1 hour after administration
  effect on micturition interval: significantly (p < 0.05) prolonged the micturition intervals
P-glycoprotein
  P-glycoprotein substrate status: substrate for the BBB drug transporter P-glycoprotein
CYP3A4
  metabolizing enzyme: primarily metabolized by CYP3A4
5-HT1A receptors [4]
  functional character at 5-HT1A receptors: full antagonist
5-HT1A receptors [5]; 0.1 mg/kg (8-OH-DPAT model, 1-2 hours postdose) and 0.3 mg/kg (SCL model, 0.5-1 hour postdose)
  simulated RO at minimum effective doses during micturition monitoring period: around 60%
5-HT1A receptors [5]; 0.1 mg/kg oral, 1-2 hours after dosing, 8-OH-DPAT treatment
  simulated 5-HT1A RO: 60-70%
5-HT1A receptors [5]; 0.3 mg/kg oral, 0.5-1 hour after dosing, SCL model
  simulated 5-HT1A RO: 60-80%
5-HT1A receptors [5]; inferred from simulated RO and pharmacological tests
  5-HT1A RO required for significant effects on micturition: ≥ 60%
